The text below walks through data of paper PMC5908784, “Extracellular loops 2 and 3 of the calcitonin receptor selectively modify agonist binding and efficacy” (Biochemical Pharmacology, 2018).

Where a chain is given by its changes, count along the chain named. Where a SMILES comes first, the peptide text is derived from it. Bridges are numbered along the chain shown (N, C = ends). Where no end group is shown, it is not given here.

The term Emax denotes the size of the effect at its maximum, as opposed to the concentration needed. As usually defined, the EC50 is the concentration giving half of the maximal effect. A higher EC50 goes with a less potent agent. A word on the Ki: it is a measure of affinity in units of concentration, obtained from inhibition or displacement.

For experiment [1], the target named is T1, hCTR W290A (Homo sapiens, UniProt P30988, W290A).
T1 construct: c-Myc (N); expressed in transfected cells
T1 sequence (P30988 25-474 W290A): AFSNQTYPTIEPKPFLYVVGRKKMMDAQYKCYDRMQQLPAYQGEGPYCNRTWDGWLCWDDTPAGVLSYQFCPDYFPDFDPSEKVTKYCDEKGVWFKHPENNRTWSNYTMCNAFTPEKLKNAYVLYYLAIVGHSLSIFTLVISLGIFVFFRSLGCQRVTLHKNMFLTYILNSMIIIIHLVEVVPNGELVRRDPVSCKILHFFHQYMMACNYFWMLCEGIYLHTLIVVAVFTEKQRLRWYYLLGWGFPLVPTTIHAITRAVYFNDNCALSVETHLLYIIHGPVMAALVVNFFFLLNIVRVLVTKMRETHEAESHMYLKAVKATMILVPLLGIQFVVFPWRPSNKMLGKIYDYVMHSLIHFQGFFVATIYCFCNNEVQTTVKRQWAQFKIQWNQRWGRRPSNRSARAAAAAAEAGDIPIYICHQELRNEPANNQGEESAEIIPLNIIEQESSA
Description: ERK1/2 phosphorylation. It is filed as cell-based. Particulars: CV1-FlpIn cells, mean ± S.E.M.; for Emax: pERK maximal response. The method in brief:
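Cells were seeded at 2.5 × 10^4 cells/well and cultured overnight before stimulation. ERK1/2 phosphorylation was normalized to the maximal response to 10% FBS measured at 6 min. EC50 and Emax came from a 3-parameter logistic fit of concentration-response curves.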

In experiment [2] the target is T2, hCTR N288A (Homo sapiens, UniProt P30988, N288A).
T2 construct: expressed in transfected cells
T2 sequence (P30988 25-474 N288A): T1 sequence (P30988 25-474 W290A) with N264A, A266W
Description: Homologous whole cell competition binding. Particulars: homologous competition of 125I-sCT(8-32), whole cells, mean ± S.E.M., SEM. As for the experimental part:
(§1) Homologous radioligand competition was performed on 2.5 × 10^4 cells/well seeded into 96-well trays and cultured overnight. Cells were incubated overnight at 4 °C with two concentrations of ^125I-sCT(8-32) (between 25 and 100 pM; specific activity, 2000 Ci/mmol^9) and serial dilutions of non-iodinated sCT(8-32). Non-bound ligand was removed and bound ligand activity was measured using a γ counter (Wallac Wizard 1470 Gamma Counter, Perkin Elmer, 80% counter efficiency). Values were normalized against non-specific binding (0%) defined by the presence of 1 μM of unlabelled sCT(8-32), and total ligand bound in absence of competing sCT(8-32) (100%).
(§2) IC50 and Bmax values were estimated from competitive inhibition of ^125I-sCT(8-32) binding using a 3-parameter logistic equation (log(inhibitor versus response)) in Prism (v7; Graphpad). Data were corrected for radioligand occupancy using the Cheng-Prusoff equation in Prism; as such data are reported as pKi. Emax and EC50 were estimated from concentration-response curves using with a 3-parameter logistic equation in Prism (v7). These values are a composite of functional affinity, efficacy and stimulus response coupling. The Black and Leff operational model of agonism was applied to separate effects on pathway-specific efficacy (τ) from those that modify ligand functional affinity (pKA). Derived τ values were normalized to experimentally determined levels of cell surface expression to provide a measure of efficacy (τc) that is independent of affinity and altered cell surface receptor expression. pKi, pKA and log τc values for mutant receptors were statistically compared to those of the WT receptor using a one-way analysis of variance (ANOVA) and Dunnett’s post-test. Significance was accepted at P < 0.05.

Experiment [3] has as its target T3, hCTR V283A (Homo sapiens, UniProt P30988, V283A).
T3 construct: expressed in transfected cells
T3 sequence (P30988 25-474 V283A): T1 sequence (P30988 25-474 W290A) with V259A, A266W
Description: Homologous whole cell competition binding. Particulars: homologous competition of 125I-sCT(8-32), whole cells, mean ± S.E.M., SEM. As for the experimental part: as §1, §2

Experiment [4] addresses T4, hCTR H296A (Homo sapiens, UniProt P30988, H296A).
T4 construct: c-Myc (N); expressed in transfected cells
T4 sequence (P30988 25-474 H296A): T1 sequence (P30988 25-474 W290A) with A266W, H272A
In words: Homologous whole cell competition binding. Particulars: homologous competition of 125I-sCT(8-32), whole cells, mean ± S.E.M., SEM. As for the experimental part:
as §1, §2

`CSCC[C@H](NC(=O)CNC(=O)[C@H](CO)NC(=O)[C@H](Cc1ccccc1)NC(=O)[C@H](CCCNC(=N)N)NC(=O)[C@H](Cc1c[nH]cn1)NC(=O)[C@H](Cc1ccccc1)NC(=O)[C@H](CC(N)=O)NC(=O)[C@H](CC(N)=O)NC(=O)[C@H](CC(C)C)NC(=O)[C@H](CC(N)=O)NC(=O)[C@H](CCCNC(=N)N)NC(=O)[C@H](Cc1c[nH]c2ccccc12)NC(=O)[C@H](Cc1ccc(O)cc1)NC(=O)[C@H](C)NC(=O)[C@H](CO)NC(=O)[C@H](CC(C)C)NC(=O)[C@@H](NC(=O)[C@@H]1CSSC[C@H](N)C(=O)N[C@@H](CO)C(=O)N[C@@H](CC(N)=O)C(=O)N[C@@H](CC(C)C)C(=O)N[C@@H](CO)C(=O)N[C@@H]([C@@H](C)O)C(=O)N1)C(C)C)C(=O)NCC(=O)N[C@@H](Cc1ccccc1)C(=O)NCC(=O)N1CCC[C@H]1C(=O)N[C@@H](CCC(=O)O)C(=O)N[C@H](C(=O)N1CCC[C@H]1C(N)=O)[C@@H](C)O` [pCT] (H-CSNLSTCVLSAYWRNLNNFHRFSGMGFGPETP-NH2; disulfide 1-7) gave an Emax in experiment [1] of 28 ± 3%. In addition, the midpoint of the response in experiment [1] (pERK, three-parameter logistic fit), the EC50, lay at 7.41 nM.
Turning to `CC(C)C[C@H](NC(=O)[C@H](CCCCN)NC(=O)CNC(=O)[C@H](CC(C)C)NC(=O)[C@@H](NC(=O)[C@@H]1CSSC[C@H](N)C(=O)N[C@@H](CO)C(=O)N[C@@H](CC(N)=O)C(=O)N[C@@H](CC(C)C)C(=O)N[C@@H](CO)C(=O)N[C@@H]([C@@H](C)O)C(=O)N1)C(C)C)C(=O)N[C@@H](CO)C(=O)N[C@@H](CCC(N)=O)C(=O)N[C@@H](CCC(=O)O)C(=O)N[C@@H](CC(C)C)C(=O)N[C@@H](Cc1c[nH]cn1)C(=O)N[C@@H](CCCCN)C(=O)N[C@@H](CC(C)C)C(=O)N[C@@H](CCC(N)=O)C(=O)N[C@H](C(=O)N[C@@H](Cc1ccc(O)cc1)C(=O)N1CCC[C@H]1C(=O)N[C@@H](CCCNC(=N)N)C(=O)N[C@H](C(=O)N[C@@H](CC(N)=O)C(=O)N[C@H](C(=O)NCC(=O)N[C@@H](CO)C(=O)NCC(=O)N[C@H](C(=O)N1CCC[C@H]1C(N)=O)[C@@H](C)O)[C@@H](C)O)[C@@H](C)O)[C@@H](C)O` [sCT], the maximum response (Emax) in experiment [1] turned out to be 38 ± 4%.
Consider “VLGKLSQELHKLQTYPRTNTGSGTP-NH2 [sCT(8-32)]”, for which the figures for the Ki in experiment [2], in experiment [3] and in experiment [4] were 0.234 nM, 0.214 nM and 0.269 nM, respectively.
